Data from ChEMBL document CHEMBL3637782, “GSK Tres Cantos Follow-up TB Screening Data” (2016).

Test system: Mycobacterium tuberculosis variant bovis
Assay: GSK_TB: Effect of compound calculated as % inhibition at single shot or pIC50 ( pIC50 ATP assay M.bovis)
Type: functional, organism-based
Settings: BCG / Pasteur

SMILES	IC50 [µM]
O=C(NCc1ccco1)N1CCN(Cc2ccc3c(c2)CCO3)CC1	2.51
COc1ccc2nccc(NC(=O)C3CCN(CCc4ccc(Cl)cc4)CC3)c2n1	5.01
O=C(NCc1ccoc1)N1CCN(Cc2ccc3c(c2)OCO3)CC1	1.26
CCCC/C=C/c1cc2ccncc2cc1OC1CCNCC1	2.51
O=C(NCc1ccco1)N1CCN(Cc2ccc(Cl)s2)CC1	1.26
Nc1ccccc1Nc1ccc(Cl)cc1	0.1
NCC(c1cccs1)S(=O)(=O)c1ccccc1 (stereo not given)	5.01
NS(=O)(=O)c1ccc(Nc2cnc3ccccc3n2)cc1	6.31
O=C(NCc1ccco1)N1CCN(Cc2cccs2)CC1	7.94
O=S(=O)(NCc1ccccc1)c1ccc(-c2cc3ccncc3cc2OC2CCNCC2)s1	2
CNc1snc(C)c1C(=O)NCCOc1ccc(OC)cc1	3.16
COc1ccc(-c2nnc3sc(Cc4csc(C)n4)nn23)cc1	5.01
CNc1nc(SC)nnc1-c1cccc(Cl)c1Cl	12.6
Nc1ccc(C(O)CNCCc2ccccc2)cc1O (stereo not given)	2
O=C(Nc1nc2c(s1)CCCc1cccnc1-2)c1ccccc1C(F)(F)F	2.51
NC(=O)c1ccc(CN(C2CC2)S(=O)(=O)c2ccccc2F)cc1	12.6
NC(=O)c1cc2ccc(CC(=O)c3cccs3)cc2s1	15.8
CN(Cc1ccc(Cl)cc1)C(=O)CCc1nc2ccccc2oc1=O	3.98
Clc1nnc(N2CCCC2)c2ccccc12	3.16
Cc1nc(Nc2cnn(Cc3ccccc3F)c2)c2nn(C)c(C)c2n1	2.51
O=[N+]([O-])c1cnc(-c2nc3ccccc3[nH]2)s1	3.98
CCOCn1ccc(NS(=O)(=O)c2ccc(N)cc2)nc1=O	3.16
FC(F)(F)Oc1ccc(-c2cc3ccncc3cc2OC2CCNCC2)cc1	3.16
CCCCNCC1COc2ccc(OC)cc2C1=O (stereo not given)	6.31
COc1ccc(Nc2nc(N[C@@H]3CCNC3)nc3cc[nH]c(=O)c23)cc1NC(=O)c1ccccc1	5.01

SMILES	IC50 [µM]
N#Cc1ncn(-c2ccc3nnc(C(F)(F)F)n3n2)n1	7.94
Cn1cc(CCNC(=O)Nc2ccc(N3CCCCC3)nc2)cn1	20
c1ccc(-c2ncc(-c3ccc(OCCCn4ccnc4)cc3)s2)cc1	7.94
CC(C)N(C(=O)CNc1ccccc1Nc1ccccc1)c1ccccc1	6.31
COc1ccc(Nc2ncccc2N)cc1	0.794
Fc1ccc(Cc2nnc(-c3ccnc(Nc4ccc(OCCN5CCOCC5)cc4)n3)[nH]2)cc1	7.94
CC1CC1c1ccc(CN2CCc3nc(Nc4ccccc4)sc3CC2)o1 (stereo not given)	6.31
FC(F)(F)c1nnc2ccc(Sc3nnc(-c4ccco4)o3)nn12	3.16
Cc1ccc2oc(SCC(=O)Nc3nccs3)nc2n1	6.31
COC(=O)c1ccc(Oc2ccc(-c3csc(C)n3)cc2F)nn1	20
CC(C)c1noc(N2CCC([C@H](C)Oc3cnc(-c4ccc(S(C)(=O)=O)c(F)c4)cn3)CC2)n1	6.31
O=C(NCCO)c1c(O)c2ncc(Cc3ccc(F)cc3C(F)(F)F)cc2[nH]c1=O	5.01
COc1ccc(CCNC(=O)C2(n3cnnn3)CCCCC2)cc1	3.98
O=C(O)CCc1nc2ccccc2oc1=O	7.94
O=C(Nc1nc(-c2ccccn2)cs1)N1CCC(Cc2ccc(F)cc2)CC1	3.98
CCCCc1ccc(C(=O)Nc2nnc(S(=O)(=O)CCCC)s2)nc1	7.94
CC(C)Oc1ccc(-c2nnc(-c3ccc4c(c3)CCNCC4)s2)cc1Cl	2.51
N#Cc1cccc(-c2ccc(NC[C@H]3CC[C@]4(CC3)CN(c3cccnn3)C(=O)O4)nc2)c1	25.1
N#Cc1cc(C(F)(F)F)c2nc(C(=O)NCc3cccs3)c(Cl)n2c1	6.31
CCOc1cc2ccccc2cc1C(=O)NC	6.31
Cc1ccc2c(c1)c(=O)cc(C(F)(F)F)n2CCNC(=O)c1ccccn1	6.31
Fc1cccc(Oc2cc(C3CCCNC3)nc(-c3ccncc3)n2)c1 (stereo not given)	12.6
Cc1c(C(=O)NCCOc2ccccc2)[nH]c2c1C(=O)CCC2	7.94
COc1ccc(CN2CCN(C(=O)/C=C/c3csc(C)n3)CC2)cc1	5.01
Nc1ccc(S(=O)(=O)Nc2ccnn2-c2ccccc2)cc1 [SULFAPHENAZOLE]	10
